Reference: ChEMBL document CHEMBL1201862, “PubChem BioAssay data set” (2004)
Calls of active or inactive are those of the source.

Key:
[1] = target: T1, Corticotropin-releasing factor receptor 2/Corticotropin-releasing factor-binding protein (Homo sapiens, UniProt P24387+Q13324); test: activators of CRF receptor 2 with binding protein – uHTS hits, confirmation (AID 602473); type: functional; details: read-out: EC50_Mean
T1 sequence (Q13324 whole entry): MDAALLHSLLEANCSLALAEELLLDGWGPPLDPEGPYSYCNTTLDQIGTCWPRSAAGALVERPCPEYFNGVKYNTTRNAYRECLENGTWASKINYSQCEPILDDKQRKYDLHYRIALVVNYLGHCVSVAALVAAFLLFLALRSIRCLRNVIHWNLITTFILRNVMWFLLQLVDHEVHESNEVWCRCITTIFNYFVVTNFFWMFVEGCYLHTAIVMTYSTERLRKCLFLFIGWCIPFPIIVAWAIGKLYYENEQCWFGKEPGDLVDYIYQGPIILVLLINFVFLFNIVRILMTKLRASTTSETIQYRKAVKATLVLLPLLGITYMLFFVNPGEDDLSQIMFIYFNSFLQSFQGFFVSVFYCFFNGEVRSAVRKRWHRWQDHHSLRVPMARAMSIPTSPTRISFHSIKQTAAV
T1 sequence (P24387 whole entry): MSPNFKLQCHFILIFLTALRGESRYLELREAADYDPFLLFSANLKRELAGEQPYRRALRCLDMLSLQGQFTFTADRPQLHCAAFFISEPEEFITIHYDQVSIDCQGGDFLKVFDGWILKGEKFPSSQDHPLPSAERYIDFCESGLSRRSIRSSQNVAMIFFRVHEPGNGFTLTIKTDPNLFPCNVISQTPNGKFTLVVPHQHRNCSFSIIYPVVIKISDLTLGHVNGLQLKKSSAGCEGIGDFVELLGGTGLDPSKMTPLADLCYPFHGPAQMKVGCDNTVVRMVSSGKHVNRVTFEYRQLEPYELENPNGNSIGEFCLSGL

[2] = blockers of CRF-binding protein–CRF-R2 complex – cell-based, uHTS hits, 384-well, dose response (AID 651639); type: functional, Homo sapiens; details: read-out: IC50_Mean
[3] = target: T1, Corticotropin-releasing factor receptor 2/Corticotropin-releasing factor-binding protein; test: Dose Response confirmation of uHTS hits for small molecule antagonists of the CRF-binding protein and CRF-R2 receptor complex.; type: functional; details: read-out: IC50_Mean
[4] = target: T2, Aminopeptidase N (Plasmodium falciparum FcB1/Columbia, UniProt O96935); test: malaria alanyl aminopeptidase activity blockers – biochemical, fluorogenic H-Leu-NHMec substrate, 1536-well (AID 1445); design: species or system Plasmodium falciparum 3D7, 3D7
T2 sequence (O96935 whole entry): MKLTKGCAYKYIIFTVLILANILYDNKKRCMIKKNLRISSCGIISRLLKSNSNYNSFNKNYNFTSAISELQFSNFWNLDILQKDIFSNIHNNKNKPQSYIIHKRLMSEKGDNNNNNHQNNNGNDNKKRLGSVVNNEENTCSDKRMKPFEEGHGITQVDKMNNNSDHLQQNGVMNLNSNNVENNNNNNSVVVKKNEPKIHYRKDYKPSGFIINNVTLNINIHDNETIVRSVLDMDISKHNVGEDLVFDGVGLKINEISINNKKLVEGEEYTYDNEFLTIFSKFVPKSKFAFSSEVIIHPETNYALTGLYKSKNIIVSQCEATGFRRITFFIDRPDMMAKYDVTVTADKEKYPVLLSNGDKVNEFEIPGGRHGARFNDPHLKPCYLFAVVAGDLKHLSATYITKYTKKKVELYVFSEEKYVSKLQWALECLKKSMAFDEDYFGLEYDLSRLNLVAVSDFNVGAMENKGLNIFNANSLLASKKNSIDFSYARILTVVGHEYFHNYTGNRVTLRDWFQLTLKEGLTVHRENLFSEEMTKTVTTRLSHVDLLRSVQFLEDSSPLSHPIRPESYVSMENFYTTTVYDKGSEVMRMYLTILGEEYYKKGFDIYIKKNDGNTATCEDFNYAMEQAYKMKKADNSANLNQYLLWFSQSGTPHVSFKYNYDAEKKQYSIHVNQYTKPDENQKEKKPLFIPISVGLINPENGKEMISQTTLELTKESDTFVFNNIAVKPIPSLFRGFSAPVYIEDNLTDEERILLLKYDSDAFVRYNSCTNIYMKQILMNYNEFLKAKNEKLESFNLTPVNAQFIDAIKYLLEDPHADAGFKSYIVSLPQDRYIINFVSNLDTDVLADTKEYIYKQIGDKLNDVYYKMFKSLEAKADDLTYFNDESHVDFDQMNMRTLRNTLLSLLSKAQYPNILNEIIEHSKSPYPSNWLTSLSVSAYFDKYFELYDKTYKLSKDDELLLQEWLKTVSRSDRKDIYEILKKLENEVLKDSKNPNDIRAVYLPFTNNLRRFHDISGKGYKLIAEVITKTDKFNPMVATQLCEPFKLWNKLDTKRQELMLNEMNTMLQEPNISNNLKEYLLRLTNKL

[5] = A Cell Based Secondary Assay To Explore Cytotoxicity of Compounds that Sensitize Mycobacterium Tuberculosis to Beta-Lactam Antibiotics.; type: functional
[6] = system: H9c2; test: cells; type: functional, cell-based; details: Rattus norvegicus, H9c2, Myocardium;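 further: confirmatory concentration-response retest of ultra-high-throughput screening hits for modulation of myocardial damage; cell death induced by hydrogen peroxide oxidative stress; compound pretreatment for 60 min then peroxide exposure for 2 h; potency is for protecting the cells against peroxide damage rather than for killing them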
[7] = target: Voltage-dependent T-type calcium channel subunit alpha-1H (Homo sapiens, UniProt O95180); type: functional;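 further: channel activity triggered by adding a high calcium stimulation buffer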
[8] = target: T3, Short transient receptor potential channel 4 (Mus musculus, UniProt Q9QUQ5); test: calcium entry via TRPC4 opening agents – cell-based, HEK293 TRPC4/mu-opioid, Fluo-4 calcium, dose response (AID 434937); type: functional
T3 sequence (Q9QUQ5 whole entry): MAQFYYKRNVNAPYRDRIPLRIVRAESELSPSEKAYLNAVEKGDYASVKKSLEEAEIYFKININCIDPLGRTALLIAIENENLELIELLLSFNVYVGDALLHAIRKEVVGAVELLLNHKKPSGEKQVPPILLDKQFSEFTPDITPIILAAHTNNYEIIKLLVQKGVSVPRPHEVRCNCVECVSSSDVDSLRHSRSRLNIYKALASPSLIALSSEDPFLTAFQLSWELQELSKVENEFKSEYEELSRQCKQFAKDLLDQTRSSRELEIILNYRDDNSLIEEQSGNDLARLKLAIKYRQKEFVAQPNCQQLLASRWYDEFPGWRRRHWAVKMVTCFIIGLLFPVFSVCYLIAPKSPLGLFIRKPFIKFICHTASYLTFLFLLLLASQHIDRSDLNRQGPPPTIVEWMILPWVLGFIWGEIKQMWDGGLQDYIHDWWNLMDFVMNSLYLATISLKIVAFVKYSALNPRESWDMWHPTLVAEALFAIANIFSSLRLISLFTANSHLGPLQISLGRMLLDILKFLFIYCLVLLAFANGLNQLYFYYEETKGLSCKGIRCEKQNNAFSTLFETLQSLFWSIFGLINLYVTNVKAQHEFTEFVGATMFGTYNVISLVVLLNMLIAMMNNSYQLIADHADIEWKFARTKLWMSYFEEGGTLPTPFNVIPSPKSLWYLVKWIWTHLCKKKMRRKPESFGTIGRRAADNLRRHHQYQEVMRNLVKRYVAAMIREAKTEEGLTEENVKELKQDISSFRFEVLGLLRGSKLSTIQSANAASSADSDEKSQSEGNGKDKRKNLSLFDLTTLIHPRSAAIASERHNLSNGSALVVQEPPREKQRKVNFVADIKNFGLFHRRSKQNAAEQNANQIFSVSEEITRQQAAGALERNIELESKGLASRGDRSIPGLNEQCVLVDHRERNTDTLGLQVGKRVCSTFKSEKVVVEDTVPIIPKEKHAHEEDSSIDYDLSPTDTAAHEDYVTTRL

[9] = viability of uninfected HEp-2 cells – cell-based, HTS, cytotoxicity control for RSV inhibitor project, dose response (AID 2410); type: functional; details: human respiratory syncytial virus
[10] = target: T4, Heat shock factor protein 1 (Mus musculus, UniProt P38532); test: decrease of HSF1-responsive luciferase luminescence – cell-based, NIH3T3, dose retest, confirmation (AID 2382); type: functional;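 further: NIH3T3 fibroblasts with HSF1-driven luciferase reporter stressed by proteasome inhibitor MG132; luminescence from HSF1-driven luciferase expression after 8 hours of MG132 stress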
T4 sequence (P38532 whole entry): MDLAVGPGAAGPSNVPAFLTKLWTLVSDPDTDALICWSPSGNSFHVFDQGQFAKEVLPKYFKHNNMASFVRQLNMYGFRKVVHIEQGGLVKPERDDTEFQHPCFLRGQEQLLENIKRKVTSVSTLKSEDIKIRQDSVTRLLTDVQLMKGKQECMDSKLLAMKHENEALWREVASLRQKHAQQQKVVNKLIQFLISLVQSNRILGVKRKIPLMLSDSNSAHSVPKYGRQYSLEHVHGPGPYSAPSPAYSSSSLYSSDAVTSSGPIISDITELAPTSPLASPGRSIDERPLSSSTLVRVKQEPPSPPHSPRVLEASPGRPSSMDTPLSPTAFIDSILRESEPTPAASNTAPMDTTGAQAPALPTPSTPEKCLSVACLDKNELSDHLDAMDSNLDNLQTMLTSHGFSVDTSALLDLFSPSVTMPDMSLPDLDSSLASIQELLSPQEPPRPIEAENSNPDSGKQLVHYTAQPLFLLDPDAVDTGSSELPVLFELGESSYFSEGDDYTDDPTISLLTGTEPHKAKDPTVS

[11] = target: Cytochrome P450 2C19 (Homo sapiens, UniProt P33261); test: Cytochrome panel assay with activity outcomes. Panel member name: p450-cyp2c19 Compounds with AC50 equal or less than 10 uM are considered active; type: functional; details: read-out: AC50
[12] = target: T5, Cytochrome P450 1A2 (Homo sapiens, UniProt P05177);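 further: PubChem cytochrome P450 panel assay, CYP1A2 panel member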
T5 sequence (P05177 whole entry): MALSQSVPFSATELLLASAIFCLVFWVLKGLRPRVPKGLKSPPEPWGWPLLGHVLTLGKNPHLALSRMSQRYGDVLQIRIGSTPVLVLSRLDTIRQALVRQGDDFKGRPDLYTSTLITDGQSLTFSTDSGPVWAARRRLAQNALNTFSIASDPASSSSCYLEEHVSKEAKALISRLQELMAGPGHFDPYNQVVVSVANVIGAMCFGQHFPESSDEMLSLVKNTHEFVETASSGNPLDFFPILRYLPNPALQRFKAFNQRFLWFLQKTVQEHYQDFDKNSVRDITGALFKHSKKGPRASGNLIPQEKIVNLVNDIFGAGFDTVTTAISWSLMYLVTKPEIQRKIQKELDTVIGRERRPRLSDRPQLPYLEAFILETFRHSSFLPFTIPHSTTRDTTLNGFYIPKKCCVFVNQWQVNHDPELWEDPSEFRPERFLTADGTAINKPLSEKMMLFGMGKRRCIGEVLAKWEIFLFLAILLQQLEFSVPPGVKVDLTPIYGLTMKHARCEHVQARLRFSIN

[13] = target: T6, Cytochrome P450 2C9 (Homo sapiens, UniProt P11712)
[14] = target: T6, Cytochrome P450 2C9; remark: listed apart in the source

Voltage-dependent T-type calcium channel subunit alpha-1H, sequence (O95180 whole entry): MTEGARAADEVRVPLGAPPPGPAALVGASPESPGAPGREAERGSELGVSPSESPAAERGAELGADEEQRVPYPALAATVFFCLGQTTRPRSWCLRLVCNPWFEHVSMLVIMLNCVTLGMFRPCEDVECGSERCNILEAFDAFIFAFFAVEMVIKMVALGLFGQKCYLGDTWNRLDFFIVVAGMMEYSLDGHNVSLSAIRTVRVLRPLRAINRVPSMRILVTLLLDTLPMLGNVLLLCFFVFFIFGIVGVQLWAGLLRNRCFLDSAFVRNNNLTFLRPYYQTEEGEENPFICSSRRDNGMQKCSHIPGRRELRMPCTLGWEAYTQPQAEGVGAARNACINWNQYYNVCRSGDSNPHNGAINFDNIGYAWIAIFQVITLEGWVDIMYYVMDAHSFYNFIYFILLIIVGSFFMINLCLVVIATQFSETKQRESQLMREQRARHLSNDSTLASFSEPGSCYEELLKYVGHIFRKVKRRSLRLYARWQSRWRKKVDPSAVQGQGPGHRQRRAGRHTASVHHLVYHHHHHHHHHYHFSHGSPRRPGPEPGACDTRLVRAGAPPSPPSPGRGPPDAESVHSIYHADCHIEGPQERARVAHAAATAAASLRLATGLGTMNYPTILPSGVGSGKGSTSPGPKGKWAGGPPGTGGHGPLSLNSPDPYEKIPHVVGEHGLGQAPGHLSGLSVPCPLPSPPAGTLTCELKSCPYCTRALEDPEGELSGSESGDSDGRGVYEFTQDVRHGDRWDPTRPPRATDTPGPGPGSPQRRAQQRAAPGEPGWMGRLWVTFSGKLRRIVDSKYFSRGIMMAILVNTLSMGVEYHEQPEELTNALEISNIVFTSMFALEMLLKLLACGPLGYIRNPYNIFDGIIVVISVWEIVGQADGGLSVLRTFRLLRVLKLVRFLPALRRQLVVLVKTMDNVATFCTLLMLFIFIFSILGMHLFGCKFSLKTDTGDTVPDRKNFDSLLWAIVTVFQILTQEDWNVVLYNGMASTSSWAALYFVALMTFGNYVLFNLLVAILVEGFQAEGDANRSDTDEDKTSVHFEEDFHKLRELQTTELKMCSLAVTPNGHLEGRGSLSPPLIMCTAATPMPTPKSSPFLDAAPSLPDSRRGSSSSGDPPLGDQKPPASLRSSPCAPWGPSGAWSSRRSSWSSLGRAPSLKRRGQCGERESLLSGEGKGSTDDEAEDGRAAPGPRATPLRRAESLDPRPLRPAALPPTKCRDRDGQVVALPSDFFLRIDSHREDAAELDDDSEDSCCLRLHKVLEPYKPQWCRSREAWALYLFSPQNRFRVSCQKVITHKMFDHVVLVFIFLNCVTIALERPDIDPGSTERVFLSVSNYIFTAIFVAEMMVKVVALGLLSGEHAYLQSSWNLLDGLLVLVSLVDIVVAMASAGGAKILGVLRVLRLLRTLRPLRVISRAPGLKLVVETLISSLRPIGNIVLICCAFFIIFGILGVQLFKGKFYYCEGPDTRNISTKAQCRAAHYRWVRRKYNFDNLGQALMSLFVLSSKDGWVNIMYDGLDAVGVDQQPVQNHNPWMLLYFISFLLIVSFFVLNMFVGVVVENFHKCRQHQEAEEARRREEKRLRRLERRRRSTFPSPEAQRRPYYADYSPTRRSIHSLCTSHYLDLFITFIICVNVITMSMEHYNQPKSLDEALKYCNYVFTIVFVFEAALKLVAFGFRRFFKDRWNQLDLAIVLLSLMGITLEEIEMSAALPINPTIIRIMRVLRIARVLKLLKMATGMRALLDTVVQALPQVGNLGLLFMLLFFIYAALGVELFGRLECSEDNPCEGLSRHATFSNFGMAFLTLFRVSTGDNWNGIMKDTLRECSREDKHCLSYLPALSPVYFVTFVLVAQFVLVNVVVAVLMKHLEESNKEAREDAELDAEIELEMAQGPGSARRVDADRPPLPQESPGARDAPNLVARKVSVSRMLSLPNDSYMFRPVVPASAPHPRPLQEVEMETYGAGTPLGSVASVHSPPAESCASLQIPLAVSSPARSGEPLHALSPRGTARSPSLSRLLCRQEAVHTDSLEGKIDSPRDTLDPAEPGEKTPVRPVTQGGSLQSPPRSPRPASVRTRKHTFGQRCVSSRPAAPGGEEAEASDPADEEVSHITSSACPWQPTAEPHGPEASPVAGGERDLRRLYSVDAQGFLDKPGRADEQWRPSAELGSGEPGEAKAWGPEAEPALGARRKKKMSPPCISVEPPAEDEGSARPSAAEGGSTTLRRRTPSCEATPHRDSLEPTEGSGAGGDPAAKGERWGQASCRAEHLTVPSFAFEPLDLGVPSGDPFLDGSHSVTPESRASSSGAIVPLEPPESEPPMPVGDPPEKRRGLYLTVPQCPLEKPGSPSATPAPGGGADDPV
T6 sequence (P11712 whole entry): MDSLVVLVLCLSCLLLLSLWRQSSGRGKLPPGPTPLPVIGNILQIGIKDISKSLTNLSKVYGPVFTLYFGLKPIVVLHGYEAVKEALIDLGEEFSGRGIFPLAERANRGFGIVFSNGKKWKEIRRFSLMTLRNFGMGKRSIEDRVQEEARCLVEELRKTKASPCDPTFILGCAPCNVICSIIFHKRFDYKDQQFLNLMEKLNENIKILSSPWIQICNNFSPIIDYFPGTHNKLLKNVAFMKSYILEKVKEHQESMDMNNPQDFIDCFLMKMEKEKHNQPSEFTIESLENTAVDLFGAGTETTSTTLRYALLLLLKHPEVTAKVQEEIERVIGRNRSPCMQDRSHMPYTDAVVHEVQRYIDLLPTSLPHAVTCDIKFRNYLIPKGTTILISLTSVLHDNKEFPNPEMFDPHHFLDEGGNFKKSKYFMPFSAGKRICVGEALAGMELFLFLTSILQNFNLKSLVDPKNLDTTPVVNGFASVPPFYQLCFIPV
Cytochrome P450 2C19, sequence (P33261 whole entry): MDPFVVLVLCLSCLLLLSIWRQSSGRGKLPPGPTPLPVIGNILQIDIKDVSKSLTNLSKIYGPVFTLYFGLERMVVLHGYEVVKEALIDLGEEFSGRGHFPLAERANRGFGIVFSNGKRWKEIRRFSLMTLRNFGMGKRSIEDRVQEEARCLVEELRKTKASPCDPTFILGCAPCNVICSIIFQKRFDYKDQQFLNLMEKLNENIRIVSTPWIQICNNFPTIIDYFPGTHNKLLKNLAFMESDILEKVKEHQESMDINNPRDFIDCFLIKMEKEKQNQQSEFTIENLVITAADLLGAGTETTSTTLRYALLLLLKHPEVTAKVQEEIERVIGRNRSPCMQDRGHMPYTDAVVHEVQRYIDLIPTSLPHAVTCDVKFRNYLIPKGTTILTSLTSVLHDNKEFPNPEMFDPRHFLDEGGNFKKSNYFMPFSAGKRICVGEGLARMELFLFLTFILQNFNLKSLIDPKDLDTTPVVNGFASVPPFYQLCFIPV

O=C1CC(c2ccc(Cl)cc2)SC(N(c2ccccc2)c2ccccc2)=N1 (stereo unspecified)
EC50 [1]: > 53 µM (inactive) | IC50 [2]: 14.9 µM (active) | IC50 [3]: 13.8 µM (active)

O=C(CSc1nc2ccsc2c(=O)n1NC(=O)c1ccccc1)NCc1ccco1
IC50 [4]: 72.1 µM (active)

Cn1c(=S)[nH]c2sc3c(c2c1=O)CCC(C(C)(C)C)C3 (stereo unspecified)
CC50 [5]: 10.7 µM (active)

N#Cc1c(NC(=O)CSc2nc(-c3ccco3)cc(C(F)(F)F)n2)sc2c1CCCC2
CC50 [5]: > 40 µM (active)

O=C(CCn1nc(-c2ccccc2)c2ccccc2c1=O)N1CCN(c2ccccc2)CC1
IC50 [6]: > 79 µM (inactive) | EC50 [7]: 7.63 µM (active)

Cc1ccc(C)c(NC(S)=NCCc2c[nH]cn2)c1
EC50 [8]: 2.66 µM (active)

O=C(c1cccs1)N1CCN(c2ncc(Br)cn2)CC1
EC50 [8]: 0.668 µM (active)

C/C(N)=C(/C#N)C(=O)COC(=O)c1cc(-c2cccc(Br)c2)nc2ccccc12
CC50 [9]: 12.2 µM (active)

Cc1ccc(-n2nc(C)c3c2NC(=O)CSC3c2ccc3c(c2)OCO3)cc1 (stereo unspecified)
EC50 [10]: > 195 µM (not active) | EC50 [7]: 6.71 µM (active)

O=C(c1ccc(-c2ccccc2Cl)s1)N1CCOCC1
CC50 [9]: > 50 µM (active)

O=C(Nc1cccc2ccccc12)N1CCCN(c2c(Cl)cncc2Cl)CC1
CC50 [5]: > 40 µM (active)

CCCCOC1CC(c2ccc(OCc3ccc(OC)cc3)c(OC)c2)N(C)O1 (stereo unspecified)
EC50 [1]: > 53 µM (inactive) | IC50 [2]: > 20 µM (inactive) | IC50 [3]: 15.4 µM (active)

Fc1ccc(N2CCN(c3ccc4c(C(F)(F)F)cc(C(F)(F)F)nc4n3)CC2)cc1
AC50 [11]: 22.4 µM (inconclusive) | AC50 [12]: 5.01 µM (inconclusive) | EC50 [7]: 4.13 µM (active) | AC50 [13]: inconclusive

CCCCN(CCCC)CP(=O)(c1ccccc1)c1ccccc1
EC50 [7]: 11.4 µM (active)

CC1CCCCC1NC(=O)CCCCCn1c(=S)[nH]c2ccsc2c1=O (stereo unspecified)
EC50 [1]: > 53 µM (inactive) | IC50 [2]: > 20 µM (inactive) | IC50 [3]: < 0.368 µM (active)

Cc1cccc(-c2nc(CN3CCCC(C(=O)NC4CCCCC4)C3)c(C)o2)c1 (stereo unspecified)
AC50 [14]: 28.2 µM (inconclusive) | AC50 [12]: 20 µM (inconclusive) | EC50 [7]: 2.14 µM (active)

Cc1ccc(S(=O)(=O)c2nc(NCCN(C)C)sc2Cl)cc1
IC50 [4]: 12.7 µM (active)

CC(/C=C(\NC(=O)c1ccccc1)C(=O)N=Nc1c(O)[nH]c2ccc(C)cc12)=C\c1ccccc1
EC50 [10]: 16.1 µM (active) | CC50 [5]: 33.7 µM (active)

NS(=O)(=O)c1ccc(N2N=C(c3ccccc3)CC2c2cccc(F)c2)cc1 (stereo unspecified)
IC50 [4]: 47.6 µM (active)

CSc1cccc(NC(=O)CN(c2ccc(C)cc2C)S(C)(=O)=O)c1
EC50 [7]: 4.13 µM (active)

Cc1nn(-c2cc(C(F)(F)F)ccc2Cl)c2nc(C(Cl)(Cl)Cl)nc(O)c12
EC50 [1]: > 53 µM (inactive) | IC50 [2]: 11.1 µM (active) | IC50 [3]: 5.2 µM (active)

O=C(CS(=O)(=O)Cc1ccccc1)N1CCN(c2cccc(C(F)(F)F)c2)CC1
IC50 [4]: 105 µM (active)

CC(C)Cc1csc(NC(=O)c2ccc(Cl)cc2)c1C(=O)O
EC50 [1]: 25.8 µM (active) | IC50 [2]: 17.8 µM (active) | IC50 [3]: 5.06 µM (active)
